ChEMBL document CHEMBL3608291, “Chemical constituents of Miliusa balansae leaves and inhibition of nitric oxide production in lipopolysaccharide-induced RAW 264.7 cells” (Bioorg Med Chem Lett, 2015)
Active and inactive are the calls of the source. No cut-off for these calls is given here.

Assays:
RAW264.7 [1] = experiment: Anti-inflammatory activity in LPS-stimulated mouse RAW264.7 cells assessed as inhibition of nitric oxide production at 20 uM by Griess reaction based ELISA method; format: functional
RAW264.7 [2] = experiment: Anti-inflammatory activity in LPS-stimulated mouse RAW264.7 cells assessed as inhibition of nitric oxide production at 40 uM by Griess reaction based ELISA method; format: functional
RAW264.7 [3] = experiment: Cytotoxicity against mouse RAW264.7 cells assessed as reduction in cell viability at 10 to 40 uM by MTT assay; format: cell-based; conditions: raw264.7, 40 µM
RAW264.7 [4] = experiment: Anti-inflammatory activity in LPS-stimulated mouse RAW264.7 cells assessed as inhibition of nitric oxide production at 10 uM by Griess reaction based ELISA method; format: functional, cell-based
RAW264.7 [5] = experiment: Anti-inflammatory activity in LPS-stimulated mouse RAW264.7 cells assessed as inhibition of nitric oxide production at 10 to 40 uM by Griess reaction based ELISA method; format: functional

Structure (SMILES) | inhibition (RAW264.7 [1]) | inhibition (RAW264.7 [2]) | Activity (RAW264.7 [3]) | inhibition (RAW264.7 [4]) | inhibition at 20 µM (RAW264.7 [1]) [%] | inhibition (INH) (RAW264.7 [5]) [%] | inhibition at 40 µM (RAW264.7 [2]) [%]
C[C@H](CC[C@H]1[C@H](C)CC(=O)CC1(C)C)O[C@@H]1O[C@H](CO)[C@@H](O)[C@H](O)[C@H]1O | inactive | inactive | Non-toxic | inactive | – | – | –
COc1cc([C@H](O)[C@H](CO)O[C@@H]2O[C@H](CO)[C@@H](O)[C@H](O)[C@H]2O)ccc1O | – | – | Non-toxic | – | 91.5 | 98 | –
CC(=O)/C=C/[C@@]12O[C@@H](CC1(C)C)C[C@@]2(C)O[C@@H]1O[C@H](CO)[C@@H](O)[C@H](O)[C@H]1O | – | – | Non-toxic | – | 84.8 | – | –
C[C@H](CC[C@H]1[C@H](C)C[C@H](O)CC1(C)C)O[C@@H]1O[C@H](CO)[C@@H](O)[C@H](O)[C@H]1O | Active | – | Non-toxic | Active | – | – | 82
CC1=C2C[C@@H]3[C@@](C)(C[C@]2(O)OC1=O)[C@H](O)CC[C@@]3(C)O [CHLORAEUDOLIDE] | inactive | inactive | Non-toxic | inactive | – | – | –
CC(C)CC(=O)c1c(O)cc(O)cc1O[C@@H]1O[C@H](CO)[C@@H](O)[C@H](O)[C@H]1O | inactive | inactive | Non-toxic | inactive | – | – | –
C[C@@H]1O[C@@H](OC[C@H]2O[C@@H](Oc3c(-c4ccc(O)c(O)c4)oc4cc(O)cc(O)c4c3=O)[C@H](O)[C@@H](O)[C@@H]2O)[C@H](O)[C@H](O)[C@H]1O [RUTIN] | inactive | inactive | Non-toxic | inactive | – | – | –
COc1cc([C@H](O)[C@@H](O)CO)cc(OC)c1O (relative stereo) | inactive | inactive | Non-toxic | inactive | – | – | –
CC(=O)/C=C/[C@@]12O[C@@H](C[C@]1(C)O[C@@H]1O[C@H](CO[C@@H]3OC[C@](O)(CO)[C@H]3O)[C@@H](O)[C@H](O)[C@H]1O)[C@H](O)C2(C)C | – | – | Non-toxic | – | 90.9 | – | –
Oc1cc(O)c2c(c1)O[C@H](c1ccc(O)c(O)c1)[C@H](O)C2 [(-)-EPICATECHIN] | Active | – | Non-toxic | Active | – | – | 91.8
COc1cc([C@H](O)[C@H](O)CO)ccc1O (relative stereo) | inactive | inactive | Non-toxic | inactive | – | 48.4 | –
COc1cc(-c2oc3cc(OC)c(O)c(O)c3c(=O)c2OC)ccc1O [CHRYSOSPLENOL C] | inactive | inactive | Non-toxic | inactive | – | – | –
COc1cc([C@H](O)[C@@H](O)CO)ccc1O (relative stereo) | inactive | inactive | Non-toxic | inactive | – | 48.4 | –
C[C@H](/C=C/[C@@]1(O)[C@H](C)CC(=O)CC1(C)C)O[C@@H]1O[C@H](CO)[C@@H](O)[C@H](O)[C@H]1O | inactive | inactive | Non-toxic | inactive | – | – | –
CC/C=C\CCO[C@@H]1O[C@H](CO)[C@@H](O)[C@H](O)[C@H]1O | – | – | Non-toxic | – | 91.8 | – | –
CC(=O)/C=C/[C@@]12O[C@@H](C[C@]1(C)O[C@@H]1O[C@H](CO)[C@@H](O)[C@H](O)[C@H]1O)[C@H](O)C2(C)C | – | – | Non-toxic | – | 98.5 | – | –
CC1=C2C[C@@H]3[C@@](C)(C[C@]2(O)OC1=O)[C@H](O)CC[C@]3(C)O | inactive | inactive | Non-toxic | inactive | – | – | –
O=C1/C(=C/c2ccc(O)c(O)c2)Oc2cc(O)ccc21 [SULFURETIN] | – | – | – | – | 81.3 | – | –
COc1cc([C@H](O)[C@H](O)CO)cc(OC)c1O (relative stereo) | inactive | inactive | Non-toxic | inactive | – | – | –
